From ChEMBL document CHEMBL1201862, “PubChem BioAssay data set” (2004)
Activity calls are given as the source filed them.

How the values were obtained:
[1] = target: T1, Sentrin-specific protease 7 (Homo sapiens, UniProt Q9BQF6); type: functional;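 also: Luminescence-based dose-response confirmation of ultra-high-throughput screening hits, measuring inhibition of SENP7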
T1 sequence (Q9BQF6 whole entry): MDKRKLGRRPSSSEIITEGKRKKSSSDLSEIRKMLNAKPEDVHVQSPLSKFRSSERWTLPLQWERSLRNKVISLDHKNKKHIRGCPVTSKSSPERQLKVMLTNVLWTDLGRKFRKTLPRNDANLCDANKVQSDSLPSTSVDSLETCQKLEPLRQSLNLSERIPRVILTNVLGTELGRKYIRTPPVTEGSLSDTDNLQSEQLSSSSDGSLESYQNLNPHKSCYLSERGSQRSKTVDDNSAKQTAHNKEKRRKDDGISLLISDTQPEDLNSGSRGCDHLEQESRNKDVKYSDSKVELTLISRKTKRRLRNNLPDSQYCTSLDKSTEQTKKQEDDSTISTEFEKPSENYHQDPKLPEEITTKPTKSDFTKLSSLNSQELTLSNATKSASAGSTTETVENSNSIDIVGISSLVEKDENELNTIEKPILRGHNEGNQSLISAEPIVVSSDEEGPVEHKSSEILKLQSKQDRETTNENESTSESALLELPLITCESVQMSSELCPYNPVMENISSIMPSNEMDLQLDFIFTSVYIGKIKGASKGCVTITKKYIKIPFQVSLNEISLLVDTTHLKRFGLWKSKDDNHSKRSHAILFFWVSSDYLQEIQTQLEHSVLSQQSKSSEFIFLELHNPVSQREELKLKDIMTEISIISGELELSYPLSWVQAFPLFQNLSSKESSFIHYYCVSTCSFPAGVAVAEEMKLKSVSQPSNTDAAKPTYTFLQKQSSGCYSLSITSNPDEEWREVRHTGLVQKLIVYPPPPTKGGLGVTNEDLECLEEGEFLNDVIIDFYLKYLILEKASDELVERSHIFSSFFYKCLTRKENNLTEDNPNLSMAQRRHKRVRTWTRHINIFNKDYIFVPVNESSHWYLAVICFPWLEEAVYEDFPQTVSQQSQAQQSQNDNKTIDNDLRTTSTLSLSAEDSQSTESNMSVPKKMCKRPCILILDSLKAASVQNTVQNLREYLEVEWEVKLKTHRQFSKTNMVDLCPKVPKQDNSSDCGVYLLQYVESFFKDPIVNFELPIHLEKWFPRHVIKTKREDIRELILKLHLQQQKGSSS

[2] = system: INS1; assay: beta cell apoptosis inhibitors, cytokine rescue, dose response, luminescence, retest (AID 449756); type: functional, cell-based; settings: Rattus norvegicus;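 also: cell death triggered by IL-1 beta plus TNF-alpha plus IFN-gamma mixture; protective hits raise ATP signal compared with cytokine alone wells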
[3] = target: T2, Caspase-3 (Homo sapiens, UniProt P42574); type: functional;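 also: Dose-response selectivity test against caspase-3 for candidate inhibitors of sentrin-specific proteases (SENPs)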
T2 sequence (P42574 whole entry): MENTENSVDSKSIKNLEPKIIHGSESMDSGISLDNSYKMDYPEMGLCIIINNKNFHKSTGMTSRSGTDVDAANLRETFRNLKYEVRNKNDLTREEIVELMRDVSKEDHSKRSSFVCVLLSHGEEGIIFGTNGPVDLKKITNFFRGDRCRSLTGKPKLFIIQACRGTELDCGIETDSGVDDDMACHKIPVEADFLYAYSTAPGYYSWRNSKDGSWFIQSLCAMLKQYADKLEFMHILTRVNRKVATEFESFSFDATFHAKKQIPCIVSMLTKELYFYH

[4] = target: T3, Streptokinase A (Streptococcus pyogenes serotype M1, UniProt P10520); assay: S. pyogenes streptokinase expression inhibitors, potency, dose response, plasminogen activation absorbance, OD405 (AID 1914); type: functional, Streptococcus pyogenes M1 GAS;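 also: secreted streptokinase activity via plasminogen activation per viability signal from cell pellet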
T3 sequence (P10520 whole entry): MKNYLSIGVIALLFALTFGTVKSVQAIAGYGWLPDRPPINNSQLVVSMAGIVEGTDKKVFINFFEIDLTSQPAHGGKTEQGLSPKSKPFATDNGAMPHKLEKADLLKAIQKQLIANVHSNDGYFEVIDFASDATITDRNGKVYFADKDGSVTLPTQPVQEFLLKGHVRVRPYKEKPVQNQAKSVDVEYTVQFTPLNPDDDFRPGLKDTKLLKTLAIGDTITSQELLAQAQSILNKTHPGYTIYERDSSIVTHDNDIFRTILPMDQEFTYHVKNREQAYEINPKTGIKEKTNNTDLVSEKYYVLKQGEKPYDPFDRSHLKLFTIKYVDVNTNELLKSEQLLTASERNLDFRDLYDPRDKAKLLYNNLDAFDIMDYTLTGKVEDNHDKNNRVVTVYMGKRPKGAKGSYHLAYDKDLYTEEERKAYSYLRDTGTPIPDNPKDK

[5] = system: Streptococcus; assay: Group A Streptococcus viability loss, dose response, counter-screen for streptokinase expression inhibitor project, luminescence, BacTiterGlo (AID 1915); type: functional, organism-based; settings: read-out: EC50;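 also: potency for reduction of bacterial viability or growth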
[6] = target: Mitogen-activated protein kinase 8 (Homo sapiens, UniProt P45983); type: functional;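 also: value comes from one member of a kinome-wide kinase profiling panel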
[7] = target: Vascular endothelial growth factor receptor 1 (Homo sapiens, UniProt P17948); type: functional;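 also: measured within a kinome-wide profiling panel, FLT1 as the panel member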
Chain of Vascular endothelial growth factor receptor 1 (P17948 whole entry): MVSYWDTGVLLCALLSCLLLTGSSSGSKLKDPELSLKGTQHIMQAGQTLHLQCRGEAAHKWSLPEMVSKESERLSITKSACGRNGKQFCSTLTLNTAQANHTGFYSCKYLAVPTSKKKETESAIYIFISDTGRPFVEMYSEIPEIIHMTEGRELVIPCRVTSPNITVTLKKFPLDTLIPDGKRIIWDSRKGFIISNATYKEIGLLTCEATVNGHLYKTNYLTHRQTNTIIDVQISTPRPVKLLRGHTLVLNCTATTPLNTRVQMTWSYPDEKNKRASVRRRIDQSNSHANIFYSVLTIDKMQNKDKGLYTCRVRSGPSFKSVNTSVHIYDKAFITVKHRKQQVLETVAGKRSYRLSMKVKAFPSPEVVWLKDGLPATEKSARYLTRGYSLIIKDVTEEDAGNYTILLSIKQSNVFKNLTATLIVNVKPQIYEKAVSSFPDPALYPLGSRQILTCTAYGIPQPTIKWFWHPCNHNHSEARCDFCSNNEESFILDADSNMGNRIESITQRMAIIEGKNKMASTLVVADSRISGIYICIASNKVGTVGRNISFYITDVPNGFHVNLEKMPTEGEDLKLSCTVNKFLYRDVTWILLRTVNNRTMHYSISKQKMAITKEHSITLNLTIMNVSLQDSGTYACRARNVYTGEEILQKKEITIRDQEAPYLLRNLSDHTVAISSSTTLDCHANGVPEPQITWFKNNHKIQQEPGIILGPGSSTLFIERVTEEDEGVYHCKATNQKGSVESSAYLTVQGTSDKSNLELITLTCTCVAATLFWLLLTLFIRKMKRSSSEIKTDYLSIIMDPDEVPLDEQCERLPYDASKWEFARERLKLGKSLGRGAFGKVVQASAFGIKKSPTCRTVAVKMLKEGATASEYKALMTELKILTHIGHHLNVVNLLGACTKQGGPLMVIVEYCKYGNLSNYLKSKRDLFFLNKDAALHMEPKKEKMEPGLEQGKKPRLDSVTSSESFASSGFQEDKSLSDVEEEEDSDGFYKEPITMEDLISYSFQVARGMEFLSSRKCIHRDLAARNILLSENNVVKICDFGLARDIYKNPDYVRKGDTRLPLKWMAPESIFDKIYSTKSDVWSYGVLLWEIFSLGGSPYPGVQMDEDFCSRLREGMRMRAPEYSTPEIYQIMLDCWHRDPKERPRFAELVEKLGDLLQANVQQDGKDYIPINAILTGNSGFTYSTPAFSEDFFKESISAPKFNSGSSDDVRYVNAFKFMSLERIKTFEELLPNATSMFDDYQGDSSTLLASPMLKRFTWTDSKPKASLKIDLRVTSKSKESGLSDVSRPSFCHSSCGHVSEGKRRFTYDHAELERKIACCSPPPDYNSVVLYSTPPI

[8] = target: Mitogen-activated protein kinase 9 (Homo sapiens, UniProt P45984); type: functional;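 also: value from a kinome panel profiling assay, MAPK9 panel entry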
Chain of Mitogen-activated protein kinase 9 (P45984 whole entry): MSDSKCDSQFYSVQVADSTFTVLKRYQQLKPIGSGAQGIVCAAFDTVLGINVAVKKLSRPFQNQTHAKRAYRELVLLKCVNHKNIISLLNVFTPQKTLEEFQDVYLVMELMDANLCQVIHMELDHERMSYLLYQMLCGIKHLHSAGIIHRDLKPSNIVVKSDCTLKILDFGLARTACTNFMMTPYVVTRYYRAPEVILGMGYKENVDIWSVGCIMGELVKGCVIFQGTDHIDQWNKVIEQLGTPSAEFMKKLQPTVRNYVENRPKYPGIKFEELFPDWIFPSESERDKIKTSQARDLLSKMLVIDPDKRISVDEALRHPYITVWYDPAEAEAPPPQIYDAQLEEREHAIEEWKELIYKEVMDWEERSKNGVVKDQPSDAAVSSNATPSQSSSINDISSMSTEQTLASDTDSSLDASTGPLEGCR

[9] = target: T4, Aurora kinase A (Homo sapiens, UniProt O14965); type: functional;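 also: value from the Navigating the Kinome kinase panel profiling, panel entry STK6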
T4 sequence (O14965 whole entry): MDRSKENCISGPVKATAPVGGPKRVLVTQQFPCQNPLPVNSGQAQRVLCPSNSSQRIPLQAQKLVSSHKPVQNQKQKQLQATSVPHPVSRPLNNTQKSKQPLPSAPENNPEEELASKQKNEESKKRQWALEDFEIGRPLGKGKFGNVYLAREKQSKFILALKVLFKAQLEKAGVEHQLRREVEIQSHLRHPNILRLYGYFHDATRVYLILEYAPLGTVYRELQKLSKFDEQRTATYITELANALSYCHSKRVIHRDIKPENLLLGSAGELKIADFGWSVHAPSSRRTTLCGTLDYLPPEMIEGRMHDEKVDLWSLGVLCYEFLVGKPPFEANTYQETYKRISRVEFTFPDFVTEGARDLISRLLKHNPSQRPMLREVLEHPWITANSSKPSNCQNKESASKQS

[10] = target: BDNF/NT-3 growth factors receptor (Homo sapiens, UniProt Q16620); type: functional;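 also: NTRK2 measured as one member of a broad kinome-wide kinase profiling panel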
Chain of BDNF/NT-3 growth factors receptor (Q16620 whole entry): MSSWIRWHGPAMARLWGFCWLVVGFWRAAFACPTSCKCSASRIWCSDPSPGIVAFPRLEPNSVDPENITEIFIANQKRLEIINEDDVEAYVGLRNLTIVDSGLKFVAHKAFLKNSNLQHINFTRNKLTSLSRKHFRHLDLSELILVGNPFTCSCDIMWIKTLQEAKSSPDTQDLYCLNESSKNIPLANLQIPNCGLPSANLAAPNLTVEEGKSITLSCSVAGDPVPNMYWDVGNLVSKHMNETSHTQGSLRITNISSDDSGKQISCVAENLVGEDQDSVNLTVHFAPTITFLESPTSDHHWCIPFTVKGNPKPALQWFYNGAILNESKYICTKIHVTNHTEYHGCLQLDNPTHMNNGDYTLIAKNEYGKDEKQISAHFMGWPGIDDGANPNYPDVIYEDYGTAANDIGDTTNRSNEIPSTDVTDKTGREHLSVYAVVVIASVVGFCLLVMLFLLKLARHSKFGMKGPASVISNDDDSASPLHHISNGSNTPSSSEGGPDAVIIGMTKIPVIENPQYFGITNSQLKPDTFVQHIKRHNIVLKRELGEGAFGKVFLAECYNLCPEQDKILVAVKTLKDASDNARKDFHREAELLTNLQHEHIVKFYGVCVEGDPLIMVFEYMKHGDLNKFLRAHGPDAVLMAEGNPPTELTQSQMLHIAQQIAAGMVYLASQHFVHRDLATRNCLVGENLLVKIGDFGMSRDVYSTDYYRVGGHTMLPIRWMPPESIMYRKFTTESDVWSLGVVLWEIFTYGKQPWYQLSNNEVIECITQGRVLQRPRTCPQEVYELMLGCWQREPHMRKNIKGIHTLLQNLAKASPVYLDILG

[11] = target: Dual specificity protein kinase CLK2 (Homo sapiens, UniProt P49760); type: functional
Chain of Dual specificity protein kinase CLK2 (P49760 whole entry): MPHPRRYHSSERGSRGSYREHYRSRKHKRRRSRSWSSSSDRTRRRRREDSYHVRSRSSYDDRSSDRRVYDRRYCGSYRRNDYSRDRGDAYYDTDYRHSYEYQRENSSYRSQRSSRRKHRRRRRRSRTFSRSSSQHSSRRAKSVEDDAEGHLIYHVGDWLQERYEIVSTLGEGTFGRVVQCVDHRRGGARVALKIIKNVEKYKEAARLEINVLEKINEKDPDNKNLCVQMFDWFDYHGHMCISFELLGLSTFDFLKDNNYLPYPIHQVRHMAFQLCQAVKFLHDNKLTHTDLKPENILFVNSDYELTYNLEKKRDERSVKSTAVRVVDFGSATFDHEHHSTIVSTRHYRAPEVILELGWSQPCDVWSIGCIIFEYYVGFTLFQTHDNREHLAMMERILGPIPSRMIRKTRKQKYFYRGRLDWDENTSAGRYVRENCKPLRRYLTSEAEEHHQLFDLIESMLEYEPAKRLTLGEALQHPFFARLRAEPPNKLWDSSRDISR

[12] = target: Mitogen-activated protein kinase kinase kinase kinase 2 (Homo sapiens, UniProt Q12851); type: functional;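 also: measured as one member of a kinome-wide kinase panel, with MAP4K2 as the panel entry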
Chain of Mitogen-activated protein kinase kinase kinase kinase 2 (Q12851 whole entry): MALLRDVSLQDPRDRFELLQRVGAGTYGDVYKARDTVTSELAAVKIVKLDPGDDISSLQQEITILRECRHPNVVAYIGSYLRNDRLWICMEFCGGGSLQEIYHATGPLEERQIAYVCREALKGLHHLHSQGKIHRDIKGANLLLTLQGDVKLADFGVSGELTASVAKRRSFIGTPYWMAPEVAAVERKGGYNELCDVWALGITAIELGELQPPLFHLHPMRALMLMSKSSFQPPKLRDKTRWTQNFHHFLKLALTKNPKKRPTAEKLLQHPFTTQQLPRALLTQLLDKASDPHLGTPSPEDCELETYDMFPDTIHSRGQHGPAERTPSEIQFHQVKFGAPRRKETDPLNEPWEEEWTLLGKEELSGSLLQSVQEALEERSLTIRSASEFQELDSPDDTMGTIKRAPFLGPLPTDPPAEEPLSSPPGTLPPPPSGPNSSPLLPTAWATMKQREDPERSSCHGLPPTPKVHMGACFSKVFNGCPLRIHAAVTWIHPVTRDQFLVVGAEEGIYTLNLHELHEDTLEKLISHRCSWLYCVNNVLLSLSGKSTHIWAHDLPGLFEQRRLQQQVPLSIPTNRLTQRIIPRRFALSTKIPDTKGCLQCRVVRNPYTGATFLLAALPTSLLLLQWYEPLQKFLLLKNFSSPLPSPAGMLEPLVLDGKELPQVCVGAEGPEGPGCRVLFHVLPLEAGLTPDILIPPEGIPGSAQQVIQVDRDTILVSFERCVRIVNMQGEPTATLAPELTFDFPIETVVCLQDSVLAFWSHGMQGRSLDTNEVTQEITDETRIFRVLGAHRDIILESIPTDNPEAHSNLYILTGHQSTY

[13] = target: Tyrosine-protein kinase Fyn (Homo sapiens, UniProt P06241); type: functional
Chain of Tyrosine-protein kinase Fyn (P06241 whole entry): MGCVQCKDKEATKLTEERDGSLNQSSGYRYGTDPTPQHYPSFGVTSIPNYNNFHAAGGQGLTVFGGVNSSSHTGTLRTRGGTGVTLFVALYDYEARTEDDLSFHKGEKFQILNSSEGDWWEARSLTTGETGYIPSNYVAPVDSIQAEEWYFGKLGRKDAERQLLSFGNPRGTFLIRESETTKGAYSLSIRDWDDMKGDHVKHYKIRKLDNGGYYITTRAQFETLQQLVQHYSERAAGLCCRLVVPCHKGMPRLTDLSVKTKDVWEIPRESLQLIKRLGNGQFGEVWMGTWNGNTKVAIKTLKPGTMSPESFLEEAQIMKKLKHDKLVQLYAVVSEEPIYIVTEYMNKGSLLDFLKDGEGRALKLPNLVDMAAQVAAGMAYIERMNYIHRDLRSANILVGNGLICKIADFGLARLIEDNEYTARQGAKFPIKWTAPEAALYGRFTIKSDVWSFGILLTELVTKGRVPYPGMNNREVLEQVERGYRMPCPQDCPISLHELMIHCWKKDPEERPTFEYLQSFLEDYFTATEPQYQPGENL

[14] = target: Glycogen synthase kinase-3 alpha (Homo sapiens, UniProt P49840); type: functional;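 also: GSK3A result taken from a broad kinome-wide kinase panel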
[15] = target: Serine/threonine-protein kinase PAK 4 (Homo sapiens, UniProt O96013); type: functional;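 also: value obtained within a kinome profiling panel in which PAK4 was one of the panel members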
Chain of Serine/threonine-protein kinase PAK 4 (O96013 whole entry): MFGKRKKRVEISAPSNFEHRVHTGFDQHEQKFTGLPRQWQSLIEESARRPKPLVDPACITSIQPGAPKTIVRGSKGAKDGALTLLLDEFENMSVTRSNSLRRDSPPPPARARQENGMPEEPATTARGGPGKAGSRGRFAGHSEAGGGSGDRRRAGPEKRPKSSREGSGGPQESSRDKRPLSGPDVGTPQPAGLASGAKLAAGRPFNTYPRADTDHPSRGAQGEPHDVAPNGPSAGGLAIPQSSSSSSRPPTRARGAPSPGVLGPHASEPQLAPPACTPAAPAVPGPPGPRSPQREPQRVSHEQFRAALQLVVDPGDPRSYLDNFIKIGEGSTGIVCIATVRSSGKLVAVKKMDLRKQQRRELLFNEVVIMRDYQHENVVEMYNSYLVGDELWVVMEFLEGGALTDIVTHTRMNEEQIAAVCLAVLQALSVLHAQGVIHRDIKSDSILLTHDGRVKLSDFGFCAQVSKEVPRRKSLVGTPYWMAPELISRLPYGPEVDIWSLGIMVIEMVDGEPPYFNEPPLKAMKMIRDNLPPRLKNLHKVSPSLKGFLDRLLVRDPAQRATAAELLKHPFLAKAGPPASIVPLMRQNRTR

[16] = target: Death-associated protein kinase 3 (Homo sapiens, UniProt O43293); type: functional;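 also: measured as one member of a kinome-wide profiling panel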

SMILES: Cc1cc(C)c[n+](C2=C([N-]S(=O)(=O)c3cccs3)C(=O)c3ccccc3C2=O)c1
- IC50 [1]: 41200 nM (active)
- AC50 [2]: 3120 nM (active)
- IC50 [3]: 81900 nM (active)
- EC50 [4]: > 150000 nM (not active)
- EC50 [5]: 9570 nM (active)

SMILES: CCCCCCCCCCC[N+](C)(C)CC/C=C1/c2ccccc2Sc2ccc(Cl)cc21
- EC50 [4]: 8220 nM (active)
- EC50 [5]: 7230 nM (active)

SMILES: CCn1c(-c2nonc2N)nc2cncc(C(=O)N3CCC(N)C3)c21 (configuration not stated)
- Ki [6]: > 5010 nM (inactive)
- Ki [7]: > 3980 nM (inactive)
- Ki [8]: > 3980 nM (inactive)
- Ki [9]: > 1580 nM (inactive)
- Ki [10]: > 3980 nM (inactive)
- Ki [11]: 1000 nM (active)
- Ki [12]: > 2510 nM (inactive)
- Ki [13]: > 6310 nM (inactive)
- Ki [14]: 398 nM (active)
- Ki [15]: > 5010 nM (inactive)
- Ki [16]: 79.4 nM (active)

SMILES: Cc1[nH]nc2ccc(-c3cncc(OCC(N)Cc4c[nH]c5ccccc45)c3)cc12 (configuration not stated)
- Ki [6]: 1580 nM (active)
- Ki [7]: > 398 nM (inactive)
- Ki [8]: 2000 nM (active)
- Ki [9]: > 1580 nM (inactive)
- Ki [10]: > 5010 nM (inactive)
- Ki [11]: 3.16 nM (active)
- Ki [12]: 25.1 nM (active)
- Ki [13]: > 794 nM (inactive)
- Ki [14]: 126 nM (active)
- Ki [15]: 1580 nM (active)
- Ki [16]: 100 nM (active)

SMILES: COC(=O)c1ccccc1NC1=C/C(=N\S(=O)(=O)c2cccs2)c2ccccc2C1=O
- IC50 [1]: 32300 nM (active)
- AC50 [2]: 2190 nM (active)
- IC50 [3]: 68400 nM (active)
